Results reported in patent publication US20260242478A1, “ANTIBODIES FOR TARGETING PSMA AND CD28 AND USES THEREOF” (Janux Therapeutics, Inc., priority 2023, published 2026).

Key:
[1] = target: PSMA Fab (SEQ ID NOs: 19, 20); assay: PSMA Fab binding to peptides, ELISA; conditions: PSMA Fab binding to biotinylated peptide, ELISA
Description: Peptides of Table 9 were evaluated for their ability to bind to PSMA Fab in a standard enzyme linked immunosorbent assay (ELISA) format. […] PSMA Fab diluted in buffer was then added to the peptide captured plates. Bound antibody was detected using a standard horse radish peroxidase conjugate secondary antibody.

[2] = target: PSMA Fab (SEQ ID NOs: 19, 20) binding to the PSMA antigen; assay: Inhibition of PSMA Fab binding to PSMA by peptides, competition ELISA (incl. alanine scanning); design: key to Mutation Status: tolerant (T); somewhat tolerant (ST); intolerant (IT)
Chain of PSMA Fab (SEQ ID NOs: 19, 20) binding to the PSMA antigen (as listed by the source): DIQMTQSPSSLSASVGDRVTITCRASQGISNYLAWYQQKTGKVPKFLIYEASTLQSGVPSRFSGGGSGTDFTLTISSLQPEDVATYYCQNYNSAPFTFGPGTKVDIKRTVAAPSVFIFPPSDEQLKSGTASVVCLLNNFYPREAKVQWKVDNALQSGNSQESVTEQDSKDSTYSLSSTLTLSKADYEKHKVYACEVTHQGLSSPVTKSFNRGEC
Chain of PSMA Fab (SEQ ID NOs: 19, 20) binding to the PSMA antigen (as listed by the source): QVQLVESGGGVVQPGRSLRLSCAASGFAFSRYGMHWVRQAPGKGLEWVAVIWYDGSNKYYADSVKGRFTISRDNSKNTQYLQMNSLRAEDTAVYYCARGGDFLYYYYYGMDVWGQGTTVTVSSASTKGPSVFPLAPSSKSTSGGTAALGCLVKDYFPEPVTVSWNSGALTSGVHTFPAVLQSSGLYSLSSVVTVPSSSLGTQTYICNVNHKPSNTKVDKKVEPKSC
Chain of PSMA Fab (SEQ ID NOs: 19, 20) binding to the PSMA antigen (Q04609 whole entry partner): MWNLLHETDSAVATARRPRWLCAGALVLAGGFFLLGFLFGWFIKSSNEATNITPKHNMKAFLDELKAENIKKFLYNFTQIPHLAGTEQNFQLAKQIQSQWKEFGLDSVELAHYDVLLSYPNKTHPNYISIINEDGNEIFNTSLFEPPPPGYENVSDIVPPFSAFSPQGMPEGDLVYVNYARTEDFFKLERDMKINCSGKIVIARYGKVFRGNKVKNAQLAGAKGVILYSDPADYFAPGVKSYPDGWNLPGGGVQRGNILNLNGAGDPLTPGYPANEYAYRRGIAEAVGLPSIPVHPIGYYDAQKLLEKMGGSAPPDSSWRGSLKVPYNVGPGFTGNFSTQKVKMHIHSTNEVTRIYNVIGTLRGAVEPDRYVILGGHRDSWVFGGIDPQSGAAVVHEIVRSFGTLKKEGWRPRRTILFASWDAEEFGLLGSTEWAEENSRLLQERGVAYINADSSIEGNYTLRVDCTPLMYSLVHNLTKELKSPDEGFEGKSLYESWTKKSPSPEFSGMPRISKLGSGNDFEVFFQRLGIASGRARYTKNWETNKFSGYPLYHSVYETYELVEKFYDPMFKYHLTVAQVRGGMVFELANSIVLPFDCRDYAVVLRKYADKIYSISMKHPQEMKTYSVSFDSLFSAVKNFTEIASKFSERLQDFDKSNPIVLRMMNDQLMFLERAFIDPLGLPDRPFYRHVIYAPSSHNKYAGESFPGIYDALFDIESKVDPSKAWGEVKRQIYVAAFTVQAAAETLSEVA
Description: PSMA Fab fixed at 0.3 nanomolar (nM) concentration was pre-incubated with 0-100 micromolar (μM) titrated peptides. After a short pre-incubation period, the mixture of titrated peptide with fixed PSMA Fab were added to the PSMA antigen coated plates. After a short incubation on the plates, bound PSMA Fab was detected with a standard horse radish peroxidase conjugated secondary antibody.
The tables also designate each alanine mutation as tolerant (T), somewhat tolerant (ST), or intolerant (IT) based on changes in binding inhibition ability relative to the non-mutated peptide. Cys-5 and Cys-11 of peptide-179 and peptide-180 were not mutated.

[3] = target: anti-CD28 Fab (SEQ ID NOs: 696, 697); assay: anti-CD28 Fab binding to peptides, ELISA; conditions: anti-CD28 Fab
Chain of anti-CD28 Fab (SEQ ID NOs: 696, 697) (as listed by the source): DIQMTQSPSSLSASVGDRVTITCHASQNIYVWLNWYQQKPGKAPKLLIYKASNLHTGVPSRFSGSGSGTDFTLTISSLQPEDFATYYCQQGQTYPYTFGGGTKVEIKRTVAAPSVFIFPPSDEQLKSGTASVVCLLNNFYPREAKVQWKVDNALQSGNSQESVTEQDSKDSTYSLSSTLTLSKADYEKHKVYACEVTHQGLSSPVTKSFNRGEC
Chain of anti-CD28 Fab (SEQ ID NOs: 696, 697) (as listed by the source): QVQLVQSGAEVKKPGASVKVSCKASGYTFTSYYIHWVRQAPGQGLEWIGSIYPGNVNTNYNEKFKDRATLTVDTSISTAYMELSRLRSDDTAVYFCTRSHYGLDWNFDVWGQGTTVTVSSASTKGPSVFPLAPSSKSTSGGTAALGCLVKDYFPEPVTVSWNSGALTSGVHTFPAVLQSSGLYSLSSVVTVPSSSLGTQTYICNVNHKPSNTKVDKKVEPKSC

[4] = target: anti-CD28 scFv (disulfide) (SEQ ID NO: 10); assay: anti-CD28 scFv (disulfide) binding to peptides, ELISA; conditions: Table 27
Chain of anti-CD28 scFv (disulfide) (SEQ ID NO: 10) (as listed by the source): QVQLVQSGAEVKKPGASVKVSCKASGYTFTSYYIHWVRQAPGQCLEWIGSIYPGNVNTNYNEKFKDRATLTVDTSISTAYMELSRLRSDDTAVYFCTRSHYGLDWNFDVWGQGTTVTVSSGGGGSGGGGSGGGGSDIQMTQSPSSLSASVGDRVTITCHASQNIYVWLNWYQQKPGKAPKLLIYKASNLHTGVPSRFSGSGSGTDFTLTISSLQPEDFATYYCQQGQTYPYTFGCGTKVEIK
Description: Peptides were evaluated for their ability to bind to ant-CD28 Fab (SEQ ID NOs: 696.697) or anti-CD28 scFv (disulfide) (SEQ ID NO: 10) in a standard ELISA format as described above.

[5] = Table 38, PSMA Fab fixed at 0.3 nM, peptide 0-100 μM
[6] = Table 37, PSMA Fab fixed at 0.3 nM, peptide 0-100 μM
[7] = Table 41, alanine scanning of Peptide-180, change in binding inhibition relative to non-mutated peptide
[8] = Table 41, competition binding ELISA, alanine scanning sequences of Peptide-180
[9] = Table 39, PSMA Fab fixed at 0.3 nM, peptide 0-100 μM
[10] = Table 40, alanine scanning of Peptide-179, change in binding inhibition relative to non-mutated peptide

HCLGPALGPVDGDC [Peptide-189]
EC50 ([1]; Table 38): > 3000 nM
IC50 [2, 5]: > 100000 nM

HCKFHDYHSWYMCY [Peptide-175]
EC50 ([1]; Table 37): > 1000 nM

DCFYAADIHWNYCN [Peptide-157]
EC50 ([1]; Table 37): > 1000 nM

YECHQGLFHRWCVN [Peptide-185]
EC50 ([1]; Table 38): > 3000 nM

NAHCWLWVPAHCRV [Peptide-167]
EC50 ([1]; Table 37): > 1000 nM
IC50 [2, 6]: > 100000 nM

IAVLCQPNWACAGF [Peptide-258]
Mutation Status [2, 7]: IT
IC50 [2, 8]: > 100000 nM

MEYCSFHRFTCVLW [Peptide-183]
IC50 [2, 5]: > 100000 nM

DCPWLSGFSRPLLC [Peptide-93]
EC50 ([3]; Table 24): > 1000 nM
EC50 [4]: > 1000 nM

ICQWIGATNAWVCY [Peptide-164]
Binding EC50 ([1]; Table 37): high background
IC50 [2, 6]: > 100000 nM

IAVACQPNWMCAGF [Peptide-253]
Mutation Status [2, 7]: ST

DCWWMFESYPGRCI [Peptide-86]
EC50 ([3]; Table 24): > 1000 nM
EC50 [4]: > 1000 nM

IAVLCQPNAMCAGF [Peptide-257]
Mutation Status [2, 7]: IT
IC50 [2, 8]: > 100000 nM

PLCGTEEVWWECRL [Peptide-166]
EC50 ([1]; Table 37): > 1000 nM

WECLKYTEANACTY [Peptide-76]
EC50 ([3]; Table 24): > 1000 nM
EC50 [4]: > 1000 nM

IAALCQPNWMCAGF [Peptide-252]
Mutation Status [2, 7]: T

YCEGHLPEYLEKCV [Peptide-133]
EC50 ([3]; Table 26): 32.5 nM

FWECYSSFCRFVEG [Peptide-196]
IC50 [2, 9]: > 100000 nM

LAKWCTPRWMCAAE [Peptide-242]
Mutation Status [2, 10]: T

TCAAGAHYPWPACL [Peptide-154]
EC50 ([3]; Table 25): 4.2 nM

LCAAGATYPWPTCL [Peptide-147]
EC50 ([3]; Table 25): 25.8 nM

YCEGHSQENIWKCL [Peptide-124]
EC50 ([3]; Table 26): 28.1 nM

WCWDYREWVPMTCP [Peptide-82]
EC50 ([3]; Table 24): > 1000 nM
EC50 [4]: > 1000 nM

YCWVDADMWLIFRC [Peptide-199]
IC50 [2, 9]: > 100000 nM

EGCLTLVDGRAWCW [Peptide-173]
EC50 ([1]; Table 37): > 1000 nM

EPKWCVPRGLCNYD [Peptide-240]
IC50 ([2]; Table 43, SAR guided optimization phage library of peptide-179): > 100000 nM

LMKACTPRWMCAAE [Peptide-244]
Mutation Status [2, 10]: ST

ILCGLYEALVSECG [Peptide-187]
EC50 ([1]; Table 38): > 3000 nM
IC50 [2, 5]: > 100000 nM

IAVLCQPNWMCAGA [Peptide-260]
Mutation Status [2, 7]: ST

WICDKSGSIMLCRA [Peptide-91]
EC50 ([3]; Table 24): > 1000 nM
EC50 [4]: > 1000 nM

FMCLPQNPHPLCFK [Peptide-77]
EC50 ([3]; Table 24): > 1000 nM
EC50 [4]: > 1000 nM

TCSAGATYTWPKCF [Peptide-141]
EC50 ([3]; Table 25): 15.7 nM

PDCHTILFKPWCVR [Peptide-90]
EC50 ([3]; Table 24): > 1000 nM
EC50 [4]: > 1000 nM

SCFSFARLEVVPCD [Peptide-159]
EC50 ([1]; Table 37): > 1000 nM

PDCQTILFKPWCVR [Peptide-78]
EC50 ([3]; Table 24): > 1000 nM
EC50 [4]: > 1000 nM

TCAAGAAWGWPLCF [Peptide-143]
EC50 ([3]; Table 25): 5.6 nM

YCEGHSPEYILKCL [Peptide-117]
EC50 ([3]; Table 26): 11 nM

TCAAGATWSWPACF [Peptide-142]
EC50 ([3]; Table 25): 4.5 nM

YCEGHAPEYIRKCL [Peptide-122]
EC50 ([3]; Table 26): 7.8 nM

IRCVGEGHDLVCIF [Peptide-162]
EC50 ([1]; Table 37): > 1000 nM

IAVLCQANWMCAGF [Peptide-255]
Mutation Status [2, 7]: IT
IC50 [2, 8]: > 100000 nM

YCAGHSPINIGKCL [Peptide-84]
EC50 ([3]; Table 24): 337 nM
EC50 [4]: > 1000 nM

WCWDYKLWVPMTCP [Peptide-85]
EC50 ([3]; Table 24): > 1000 nM
EC50 [4]: > 1000 nM

PLCGTEEVWWECRL [Peptide-197]
IC50 [2, 9]: > 100000 nM

FCQWIEATNAWLCY [Peptide-170]
EC50 ([1]; Table 37): > 1000 nM

MCFVTGWGVPDDCN [Peptide-208]
IC50 [2, 9]: > 100000 nM

SCSAGAAYYWPWCL [Peptide-151]
EC50 ([3]; Table 25): 112 nM

TCSAGAHYPWPICL [Peptide-150]
EC50 ([3]; Table 25): 10.6 nM

SCSAGAHYPWPQCF [Peptide-148]
EC50 ([3]; Table 25): 19 nM

YCWSHSPPFIKKCY [Peptide-131]
EC50 ([3]; Table 26): > 1000 nM

LMKWCTPAWMCAAE [Peptide-247]
Mutation Status [2, 10]: T

LMKWCAPRWMCAAE [Peptide-245]
Mutation Status [2, 10]: ST

ACHSLVLKHHLQKC [Peptide-176]
EC50 ([1]; Table 37): > 1000 nM

IAVLCQPNWMCAAF [Peptide-259]
Mutation Status [2, 7]: ST

WCWDYKLWVPTQCP [Peptide-81]
EC50 ([3]; Table 24): > 1000 nM
EC50 [4]: > 1000 nM

YCEGHRPEYILKCL [Peptide-118]
EC50 ([3]; Table 26): 65.8 nM
